In US20190330224A1, “ACC INHIBITORS AND USES THEREOF” (Gilead Apollo, LLC, priority 2015, published 2019):
≈ marks a conversion by molar mass, not a printed value.

Tests used:
C. albicans ATCC 90028 = test: Anti-Fungal Activity Assay (broth microtiter MIC), C. albicans; assay type: cell-based, Candida albicans; conditions: Candida albicans, ATCC90028, 48 h, 3 replicates; MIC recorded at 48 h; read-out: MIC C. albicans ATCC 90028
Outline: (§1)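 Broth microdilution per CLSI M27-A3 in RPMI 1640+MOPS, inoculum from overnight Sabouraud dextrose agar colonies at 35° C; compounds from 1 mg/mL DMSO stocks. MIC read visually against growth control at 48 h, with an added 24 h reading for soraphen.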

C. krusei ATCC 6258 = test: Anti-Fungal Activity Assay (broth microtiter MIC), C. krusei; assay type: cell-based, Candida krusei; conditions: Pichia kudriavzevii, ATCC6258, 48 h, 3 replicates; MIC recorded at 48 h; read-out: MIC C. krusei ATCC 6258
Outline: as §1

Human ACC2 = Human ACC2 (Homo sapiens, UniProt O00763); test: In vitro ACC2 inhibition assay (ADP-Glo), human ACC2; assay type: biochemical; conditions: 5 nM ACC2, 20 μM ATP, 20 μM acetyl-CoA
Chain of Human ACC2 (O00763 whole entry): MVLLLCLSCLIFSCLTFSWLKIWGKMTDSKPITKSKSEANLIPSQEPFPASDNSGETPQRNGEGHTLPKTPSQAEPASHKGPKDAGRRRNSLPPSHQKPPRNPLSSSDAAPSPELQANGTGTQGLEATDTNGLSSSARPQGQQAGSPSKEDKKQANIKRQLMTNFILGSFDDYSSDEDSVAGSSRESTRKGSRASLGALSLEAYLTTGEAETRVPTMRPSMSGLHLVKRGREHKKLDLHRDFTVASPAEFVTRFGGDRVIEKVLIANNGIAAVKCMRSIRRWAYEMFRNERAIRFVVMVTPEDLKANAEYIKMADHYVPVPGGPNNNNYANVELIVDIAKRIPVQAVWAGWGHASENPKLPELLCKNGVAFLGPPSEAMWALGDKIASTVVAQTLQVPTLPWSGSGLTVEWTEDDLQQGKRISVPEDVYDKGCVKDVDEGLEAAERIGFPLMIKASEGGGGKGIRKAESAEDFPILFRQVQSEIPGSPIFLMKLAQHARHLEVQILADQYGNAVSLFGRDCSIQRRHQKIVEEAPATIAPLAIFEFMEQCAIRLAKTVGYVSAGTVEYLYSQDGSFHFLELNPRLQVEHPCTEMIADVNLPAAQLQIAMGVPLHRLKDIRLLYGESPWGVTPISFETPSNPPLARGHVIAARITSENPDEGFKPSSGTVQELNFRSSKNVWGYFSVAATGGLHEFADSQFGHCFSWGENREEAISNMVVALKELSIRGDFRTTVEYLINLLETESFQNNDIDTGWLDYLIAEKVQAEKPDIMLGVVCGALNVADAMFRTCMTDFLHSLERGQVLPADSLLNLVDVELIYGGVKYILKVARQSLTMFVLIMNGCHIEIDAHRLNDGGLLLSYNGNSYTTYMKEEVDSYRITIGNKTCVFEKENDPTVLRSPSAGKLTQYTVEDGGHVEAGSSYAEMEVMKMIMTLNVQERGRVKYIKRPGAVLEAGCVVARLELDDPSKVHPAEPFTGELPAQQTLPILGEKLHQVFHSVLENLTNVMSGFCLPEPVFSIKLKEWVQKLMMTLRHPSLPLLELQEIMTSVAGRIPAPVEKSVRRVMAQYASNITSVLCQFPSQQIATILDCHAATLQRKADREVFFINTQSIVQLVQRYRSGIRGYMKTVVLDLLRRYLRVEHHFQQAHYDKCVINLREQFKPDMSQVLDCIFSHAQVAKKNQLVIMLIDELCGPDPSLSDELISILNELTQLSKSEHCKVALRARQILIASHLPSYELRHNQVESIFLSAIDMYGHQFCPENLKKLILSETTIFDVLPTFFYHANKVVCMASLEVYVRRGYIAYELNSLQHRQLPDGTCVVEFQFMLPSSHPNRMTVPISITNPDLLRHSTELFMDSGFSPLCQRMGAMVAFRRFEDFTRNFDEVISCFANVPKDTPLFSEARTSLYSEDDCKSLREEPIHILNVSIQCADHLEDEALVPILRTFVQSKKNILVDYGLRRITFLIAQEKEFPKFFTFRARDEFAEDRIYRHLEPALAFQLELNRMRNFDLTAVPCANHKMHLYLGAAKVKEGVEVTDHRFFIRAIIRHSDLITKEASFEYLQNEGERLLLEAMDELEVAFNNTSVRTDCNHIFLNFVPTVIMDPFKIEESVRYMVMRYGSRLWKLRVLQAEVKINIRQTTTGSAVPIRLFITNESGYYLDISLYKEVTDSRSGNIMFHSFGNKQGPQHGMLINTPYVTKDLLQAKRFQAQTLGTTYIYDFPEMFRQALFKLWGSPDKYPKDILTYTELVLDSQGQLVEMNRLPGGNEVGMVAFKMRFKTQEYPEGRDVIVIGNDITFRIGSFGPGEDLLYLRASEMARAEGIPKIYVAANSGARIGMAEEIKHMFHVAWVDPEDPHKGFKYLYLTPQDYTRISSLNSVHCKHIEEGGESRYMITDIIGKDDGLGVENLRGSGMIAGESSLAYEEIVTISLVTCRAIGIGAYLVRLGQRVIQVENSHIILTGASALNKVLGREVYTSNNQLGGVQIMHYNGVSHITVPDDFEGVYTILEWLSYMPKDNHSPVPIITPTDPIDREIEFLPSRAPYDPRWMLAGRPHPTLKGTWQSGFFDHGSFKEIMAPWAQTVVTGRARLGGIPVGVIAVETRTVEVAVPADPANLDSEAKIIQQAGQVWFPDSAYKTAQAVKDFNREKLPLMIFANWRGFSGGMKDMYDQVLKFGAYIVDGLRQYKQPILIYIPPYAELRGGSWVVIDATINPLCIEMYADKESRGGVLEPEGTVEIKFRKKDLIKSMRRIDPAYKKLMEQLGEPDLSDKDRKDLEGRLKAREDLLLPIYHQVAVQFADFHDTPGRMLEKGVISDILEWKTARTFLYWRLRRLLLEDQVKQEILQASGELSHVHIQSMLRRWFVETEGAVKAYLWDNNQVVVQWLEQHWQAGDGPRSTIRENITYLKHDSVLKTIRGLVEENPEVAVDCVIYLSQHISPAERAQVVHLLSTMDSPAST

Fungal ACC2 = Fungal ACC2 (UniProt Q00955); conditions: read-out: Fungal ACC2 (IC50, in vitro ACC2 inhibition)
Chain of Fungal ACC2 (Q00955 whole entry): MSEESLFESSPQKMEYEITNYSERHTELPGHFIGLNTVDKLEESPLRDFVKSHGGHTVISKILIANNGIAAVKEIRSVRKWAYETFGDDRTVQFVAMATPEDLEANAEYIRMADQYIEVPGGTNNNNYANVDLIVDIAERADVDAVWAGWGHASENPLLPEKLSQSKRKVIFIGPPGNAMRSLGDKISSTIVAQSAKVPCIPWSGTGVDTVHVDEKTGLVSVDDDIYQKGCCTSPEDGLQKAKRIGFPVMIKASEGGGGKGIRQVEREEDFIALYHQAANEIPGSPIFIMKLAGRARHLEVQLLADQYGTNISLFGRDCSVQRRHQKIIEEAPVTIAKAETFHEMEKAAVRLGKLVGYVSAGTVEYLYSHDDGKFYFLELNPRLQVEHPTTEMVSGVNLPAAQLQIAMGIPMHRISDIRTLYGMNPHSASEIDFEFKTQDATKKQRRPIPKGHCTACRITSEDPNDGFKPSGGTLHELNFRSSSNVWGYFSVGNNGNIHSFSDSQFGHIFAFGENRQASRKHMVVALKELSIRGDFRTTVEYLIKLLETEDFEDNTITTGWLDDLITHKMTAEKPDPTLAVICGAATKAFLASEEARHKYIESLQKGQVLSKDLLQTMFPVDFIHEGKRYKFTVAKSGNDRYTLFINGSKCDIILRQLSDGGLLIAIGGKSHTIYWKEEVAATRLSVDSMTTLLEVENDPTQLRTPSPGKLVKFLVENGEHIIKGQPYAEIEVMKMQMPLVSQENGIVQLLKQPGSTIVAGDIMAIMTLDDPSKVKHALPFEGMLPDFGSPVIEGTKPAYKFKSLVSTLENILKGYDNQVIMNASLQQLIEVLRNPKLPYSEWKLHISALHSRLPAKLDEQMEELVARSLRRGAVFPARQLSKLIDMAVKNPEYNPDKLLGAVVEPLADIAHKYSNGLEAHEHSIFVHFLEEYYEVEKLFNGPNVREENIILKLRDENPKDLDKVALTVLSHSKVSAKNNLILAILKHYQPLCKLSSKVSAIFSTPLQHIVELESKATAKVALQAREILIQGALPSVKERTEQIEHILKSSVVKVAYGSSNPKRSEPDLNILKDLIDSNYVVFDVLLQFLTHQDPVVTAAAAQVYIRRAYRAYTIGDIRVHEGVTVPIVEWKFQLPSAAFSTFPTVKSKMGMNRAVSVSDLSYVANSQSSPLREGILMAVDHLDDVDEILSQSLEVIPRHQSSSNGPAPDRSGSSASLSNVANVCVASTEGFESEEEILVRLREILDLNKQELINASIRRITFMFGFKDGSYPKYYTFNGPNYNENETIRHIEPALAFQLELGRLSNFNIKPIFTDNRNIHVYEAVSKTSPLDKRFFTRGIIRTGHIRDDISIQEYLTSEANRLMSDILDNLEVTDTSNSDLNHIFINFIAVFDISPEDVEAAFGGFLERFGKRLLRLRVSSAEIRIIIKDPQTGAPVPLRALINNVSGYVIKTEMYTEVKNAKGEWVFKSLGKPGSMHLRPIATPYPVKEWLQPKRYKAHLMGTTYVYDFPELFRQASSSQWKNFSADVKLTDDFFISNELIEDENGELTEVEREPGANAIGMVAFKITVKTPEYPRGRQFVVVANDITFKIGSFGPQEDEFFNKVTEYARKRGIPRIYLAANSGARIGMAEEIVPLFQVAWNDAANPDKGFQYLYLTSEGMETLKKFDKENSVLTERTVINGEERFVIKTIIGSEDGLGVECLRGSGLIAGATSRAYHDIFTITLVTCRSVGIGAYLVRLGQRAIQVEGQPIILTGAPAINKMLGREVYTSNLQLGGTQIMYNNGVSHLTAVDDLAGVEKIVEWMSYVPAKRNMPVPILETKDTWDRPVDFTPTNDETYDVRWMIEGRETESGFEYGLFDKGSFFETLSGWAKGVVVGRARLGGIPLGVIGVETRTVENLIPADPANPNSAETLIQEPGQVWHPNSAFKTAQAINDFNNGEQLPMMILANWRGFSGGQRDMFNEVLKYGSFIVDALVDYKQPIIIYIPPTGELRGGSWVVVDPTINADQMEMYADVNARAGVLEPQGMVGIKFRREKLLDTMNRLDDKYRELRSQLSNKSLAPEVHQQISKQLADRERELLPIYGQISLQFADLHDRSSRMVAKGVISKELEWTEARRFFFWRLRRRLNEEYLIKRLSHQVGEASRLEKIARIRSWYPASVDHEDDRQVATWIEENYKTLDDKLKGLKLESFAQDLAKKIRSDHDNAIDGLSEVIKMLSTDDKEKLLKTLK

[1] = test system: C. parapsilosis ATCC 22019; test: Anti-Fungal Activity Assay (broth microtiter MIC), C. parapsilosis; assay type: cell-based, Candida parapsilosis; conditions: Lodderomyces parapsilosis, ATCC22019, 48 h, 3 replicates; MIC recorded at 48 h; read-out: MIC C. parapsilosis ATCC 22019
Outline: as §1

SMILES | MIC (C. albicans ATCC 90028) [mg/L] | MIC (C. krusei ATCC 6258) [mg/L] | IC50 (Human ACC2) [µM] | IC50 (Fungal ACC2) [µM] | MIC [1] [mg/L]
COCCO[C@@H](Cn1c(=O)n(C2CCCN(C(C)C)C2=O)c(=O)c2c(C)c(-n3nccn3)sc21)c1cc(F)ccc1OC (stereo partly drawn) [Compound I-16, 1-((R)-2-(5-fluoro-2-methoxyphenyl)-2-(2-methoxy-ethoxy)ethyl)-3-(1-isopropyl-2-oxopiperidin-3-yl)-5-methyl-6-(2H-1,2,3-triazol-2-yl)thieno[2,3-d]pyrimidine-2,4(1H,3H)-dione] | 2.1 to 4 (≈ 3.42 to 6.51 µM) | 2.1 to 4 (≈ 3.42 to 6.51 µM) | 0.1 to 1 | 0.002 to 0.01 | 2.1 to 4 (≈ 3.42 to 6.51 µM)
COc1ccc(F)cc1[C@H](Cn1c(=O)n(C2CCCN(C)C2=O)c(=O)c2c(C)c(-n3nccn3)sc21)OCCO (stereo partly drawn) [Compound I-18, 1-((R)-2-(5-fluoro-2-methoxyphenyl)-2-(2-hydroxy-ethoxy)ethyl)-5-methyl-3-(1-methyl-2-oxopiperidin-3-yl)-6-(2H-1,2,3-triazol-2-yl)thieno[2,3-d]pyrimidine-2,4(1H,3H)-dione] | 2.1 to 4 (≈ 3.67 to 6.99 µM) | 2.1 to 4 (≈ 3.67 to 6.99 µM) | 0.01 to 0.1 | 0.002 to 0.01 | 2.1 to 4 (≈ 3.67 to 6.99 µM)
COc1ccc(F)cc1[C@H](Cn1c(=O)n(C2CCCN(C)C2=O)c(=O)c2c(C)c(-n3nccn3)sc21)OC1CCOCC1 (stereo partly drawn) [Compound I-22, 1-((R)-2-(5-fluoro-2-methoxyphenyl)-2-((tetrahydro-2H-pyran-4-yl)oxy)ethyl)-5-methyl-3-(1-methyl-2-oxopiperidin-3-yl)-6-(2H-1,2,3-triazol-2-yl)thieno[2,3-d]pyrimidine-2,4(1H,3H)-dione] | 0.25 to 1 (≈ 0.408 to 1.63 µM) | 0.25 to 1 (≈ 0.408 to 1.63 µM) | 0.01 to 0.1 | 0.0007 to 0.002 | 0.25 to 1 (≈ 0.408 to 1.63 µM)
CCN1CCCC(n2c(=O)c3c(C)c(-n4nccn4)sc3n(C[C@H](OC3CCOCC3)c3cc(F)ccc3OC)c2=O)C1=O (stereo partly drawn) [Compound I-23, 3-(1-ethyl-2-oxopiperidin-3-yl)-1-((R)-2-(5-fluoro-2-methoxyphenyl)-2-((tetrahydro-2H-pyran-4-yl)oxy)ethyl)-5-methyl-6-(2H-1,2,3-triazol-2-yl)thieno[2,3-d]pyrimidine-2,4(1H,3H)-dione] | 0.25 to 1 (≈ 0.399 to 1.6 µM) | 0.25 to 1 (≈ 0.399 to 1.6 µM) | 0.002 to 0.01 | 0.0007 to 0.002 | 0.25 to 1 (≈ 0.399 to 1.6 µM)
COc1ccc(F)cc1[C@H](Cn1c(=O)n([C@H]2CCN(C)C2=O)c(=O)c2c(C)c(-n3nccn3)sc21)OC1CCOCC1 [Compound I-35, 1-((R)-2-(5-fluoro-2-methoxyphenyl)-2-((tetrahydro-2H-pyran-4-yl)oxy)ethyl)-5-methyl-3-((S)-1-methyl-2-oxopyrrolidin-3-yl)-6-(2H-1,2,3-triazol-2-yl)thieno[2,3-d]pyrimidine-2,4(1H,3H)-dione] | 2.1 to 4 (≈ 3.51 to 6.68 µM) | 2.1 to 4 (≈ 3.51 to 6.68 µM) | 0.01 to 0.1 | 0.0007 to 0.002 | 2.1 to 4 (≈ 3.51 to 6.68 µM)
COc1ccc(F)cc1[C@H](Cn1c(=O)n([C@@H]2CCCN(C)C2=O)c(=O)c2c(C)c(-n3nccn3)sc21)OC1CCOCC1 [Compound I-40, 1-((R)-2-(5-fluoro-2-methoxyphenyl)-2-((tetrahydro-2H-pyran-4-yl)oxy)ethyl)-5-methyl-3-((R)-1-methyl-2-oxopiperidin-3-yl)-6-(2H-1,2,3-triazol-2-yl)thieno[2,3-d]pyrimidine-2,4(1H,3H)-dione] | 1.1 to 2 (≈ 1.8 to 3.26 µM) | 1.1 to 2 (≈ 1.8 to 3.26 µM) | 0.01 to 0.1 | 0.0007 to 0.002 | 0.25 to 1 (≈ 0.408 to 1.63 µM)
COc1ccccc1[C@H](Cn1c(=O)n(C2CCNC2=O)c(=O)c2c(C)c(-c3ncco3)sc21)OCCO (stereo partly drawn) [Compound I-53, 1-((R)-2-(2-hydroxyethoxy)-2-(2-methoxyphenyl)ethyl)-5-methyl-6-(oxazol-2-yl)-3-(2-oxopyrrolidin-3-yl)thieno[2,3-d]pyrimidine-2,4(1H,3H)-dione] | 2.1 to 4 (≈ 3.99 to 7.6 µM) | 2.1 to 4 (≈ 3.99 to 7.6 µM) | 0.01 to 0.1 | 0.01 to 0.1 | 2.1 to 4 (≈ 3.99 to 7.6 µM)
COc1ccccc1[C@H](Cn1c(=O)n(C2CCN(C)C2=O)c(=O)c2c(C)c(-c3ncco3)sc21)OCCO (stereo partly drawn) [Compound I-54, 1-((R)-2-(2-hydroxyethoxy)-2-(2-methoxyphenyl)ethyl)-5-methyl-3-(1-methyl-2-oxopyrrolidin-3-yl)-6-(oxazol-2-yl)thieno[2,3-d]pyrimidine-2,4(1H,3H)-dione] | 2.1 to 4 (≈ 3.88 to 7.4 µM) | 2.1 to 4 (≈ 3.88 to 7.4 µM) | 0.01 to 0.1 | 0.002 to 0.01 | 2.1 to 4 (≈ 3.88 to 7.4 µM)
COc1ccc(F)cc1[C@H](Cn1c(=O)n(C2CCN(C)C2=O)c(=O)c2c(C)c(-c3ncco3)sc21)OCCO (stereo partly drawn) [Compound I-55, 1-((R)-2-(5-fluoro-2-methoxyphenyl)-2-(2-hydroxy-ethoxy)ethyl)-5-methyl-3-(-methyl-2-oxopyrrolidin-3-yl)-6-(oxazol-2-yl)thieno[2,3-d]pyrimidine-2,4(1H,3H)-dione] | 2.1 to 4 (≈ 3.76 to 7.16 µM) | 2.1 to 4 (≈ 3.76 to 7.16 µM) | 0.01 to 0.1 | 0.0007 to 0.002 | 2.1 to 4 (≈ 3.76 to 7.16 µM)
